Measurements: patent publication US8198273B2, “Compounds and methods for kinase modulation, and indications therefor” (Plexxikon Inc., priority 2009, dated 2012)

Tests used:
[1] = test system: A375 melanoma cells (B-Raf V600E); assay: A375 cell growth inhibition (ATPlite); assay type: cell-based; settings: Homo sapiens, A-375, 72 h; A375, 3 days incubation
In short: (§1)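 ATPlite luminescence, taken as a cell-number measure, gave IC50 values after a 3-day 37° C, 5% CO2 incubation. Compounds were tested as 8-point threefold titrations, highest final concentration 10 μM, added to cells seeded the day before.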

[2] = test system: COLO205 colon adenocarcinoma cells (B-Raf V600E); assay: COLO205 cell growth inhibition (ATPlite); assay type: cell-based; settings: Homo sapiens, COLO 205, 72 h; COLO205, 3 days incubation
In short: as §1

[3] = test system: SKMEL2 melanoma cells (Ras mutation); assay: SKMEL2 cell growth inhibition (ATPlite); assay type: cell-based; settings: Homo sapiens, SK-MEL-2, 72 h; SKMEL2, 3 days incubation
In short: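 SKMEL2 cells seeded at 2,000 per well overnight, then exposed to an 8-point 1:3 compound titration (top 10 μM final) for 3 days at 37 °C. ATPlite luminescence used as a measure of cell number to derive IC50.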

[4] = target: CYP2D6 (Homo sapiens, UniProt P10635); assay: CYP2D6 inhibition (fluorescent substrate); assay type: in vitro ADME; settings: CYP2D6, AMMC substrate; read-out: Cyp IC50 2D6
Experimental: (§2) CYP (Cytochrome P450) enzymes are the major drug metabolizing enzymes present in the liver. The inhibition of CYP enzyme activity (IC50) for each of CYP1A2, CYP2C19, CYP2C9, CYP2D6, CYP3A4(BFC) and CYP3A4(BQ) is determined for compounds, where inhibition of metabolism of a known substrate leads to a decrease in the fluorescence of the metabolized product. The fluorescence of the product is monitored as a function of compound concentration.
(§3) Compounds are dissolved in dimethyl sulfoxide to a concentration of 100 mM. These are diluted 1 μL into 82 μL of acetonitrile. […] These are then serially diluted 1:1 (160 μL to 160 μL co-factor mix) for a total of 10 points. A 10 μL aliquot of this final mixture is dispensed into 384 well assay plates and incubated for 10 minutes at 37° C. […] Assay plates are incubated at 37° C. […] The signal versus compound concentration is used to determine the IC50. The enzymes and substrates for this assay are obtained from BD Biosciences.

[5] = test system: SW620 colon adenocarcinoma cells (wild-type B-RAF); assay: SW620 cell growth inhibition (ATPlite); assay type: cell-based; settings: Homo sapiens, SW-620, 72 h; SW620, 3 days incubation
In short: as §1

[6] = target: CYP2C9 (Homo sapiens, UniProt P11712); assay: CYP2C9 inhibition (fluorescent substrate); assay type: in vitro ADME; settings: CYP2C9, MFC substrate; read-out: Cyp IC50 2C9
Experimental: as §2, §3

CYP2D6, sequence (P10635 whole entry): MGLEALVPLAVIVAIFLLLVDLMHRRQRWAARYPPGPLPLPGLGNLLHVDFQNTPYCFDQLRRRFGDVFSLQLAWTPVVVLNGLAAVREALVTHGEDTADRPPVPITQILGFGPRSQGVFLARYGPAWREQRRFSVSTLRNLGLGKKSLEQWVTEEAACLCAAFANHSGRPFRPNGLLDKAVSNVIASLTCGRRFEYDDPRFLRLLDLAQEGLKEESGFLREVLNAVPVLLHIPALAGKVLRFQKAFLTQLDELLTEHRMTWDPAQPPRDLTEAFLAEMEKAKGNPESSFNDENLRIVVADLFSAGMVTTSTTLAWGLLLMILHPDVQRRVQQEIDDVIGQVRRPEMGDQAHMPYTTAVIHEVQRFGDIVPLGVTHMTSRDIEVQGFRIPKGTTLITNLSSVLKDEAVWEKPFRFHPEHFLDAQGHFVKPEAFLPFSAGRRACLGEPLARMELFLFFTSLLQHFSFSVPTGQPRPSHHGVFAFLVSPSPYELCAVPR
CYP2C9, sequence (P11712 whole entry): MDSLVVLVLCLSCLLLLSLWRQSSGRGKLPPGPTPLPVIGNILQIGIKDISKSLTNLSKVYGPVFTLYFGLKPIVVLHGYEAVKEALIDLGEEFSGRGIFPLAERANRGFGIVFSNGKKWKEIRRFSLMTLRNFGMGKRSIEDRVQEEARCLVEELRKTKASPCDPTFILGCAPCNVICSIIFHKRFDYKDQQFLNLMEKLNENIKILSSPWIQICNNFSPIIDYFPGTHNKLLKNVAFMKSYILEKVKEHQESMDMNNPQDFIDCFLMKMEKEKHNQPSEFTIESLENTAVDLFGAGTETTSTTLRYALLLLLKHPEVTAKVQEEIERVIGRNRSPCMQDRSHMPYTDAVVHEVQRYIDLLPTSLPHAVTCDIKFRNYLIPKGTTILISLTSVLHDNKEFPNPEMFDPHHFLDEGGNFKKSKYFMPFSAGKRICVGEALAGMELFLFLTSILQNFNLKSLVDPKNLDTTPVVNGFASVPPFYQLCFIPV

SMILES | IC50 [1] [µM] | IC50 [2] [µM] | IC50 [3] [µM] | IC50 [4] [µM] | IC50 [5] [µM] | IC50 [6] [µM]
N#Cc1ccnc2[nH]cc(C(=O)c3c(F)ccc(NS(=O)(=O)c4c(F)cccc4F)c3F)c12 [P-2037, N-[3-(4-Cyano-1H-pyrrolo[2,3-b]pyridine-3-carbonyl)-2,4-difluoro-phenyl]-2,6-difluoro-benzenesulfonamide] | < 5 |  | > 10 | > 10 | > 10 | > 10
COc1ncc(-c2cnc3[nH]cc(C(=O)c4c(F)ccc(NS(=O)(=O)c5c(F)cccc5F)c4F)c3c2)cn1 [P-2043, N-{2,4-Difluoro-3-[5-(2-methoxy-pyrimidin-5-yl)-1H-pyrrolo[2,3-b]pyridine-3-carbonyl]-phenyl}-2,6-difluoro-benzenesulfonamide] | < 5 | < 1 |  | 5 to 10 | > 10 | > 10
COc1ncc(-c2cnc3[nH]cc(C(=O)c4c(F)ccc(NS(=O)(=O)c5cccc(F)c5)c4F)c3c2)cn1 [P-2045, N-{2,4-Difluoro-3-[5-(2-methoxy-pyrimidin-5-yl)-1H-pyrrolo[2,3-b]pyridine-3-carbonyl]-phenyl}-3-fluoro-benzenesulfonamide] | < 5 | < 1 |  | > 10 | > 10 | > 10
CCCS(=O)(=O)Nc1ccc(F)c(C(=O)c2c[nH]c3ncc(-c4ccc(SC)nc4)cc23)c1F [P-2187, Propane-1-sulfonic acid {2,4-difluoro-3-[5-(6-methylsulfanyl-pyridin-3-yl)-1H-pyrrolo[2,3-b]pyridine-3-carbonyl]-phenyl}-amide] | < 1 | < 1 |  | > 10 | > 10 | > 10
CCCS(=O)(=O)Nc1ccc(F)c(C(=O)c2c[nH]c3ncc(-c4ccc(C#CCN(CC)CC)nc4)cc23)c1F [P-2222, Propane-1-sulfonic acid (3-{5-[6-(3-diethylamino-prop-1-ynyl)-pyridin-3-yl]-1H-pyrrolo[2,3-b]pyridine-3-carbonyl}-2,4-difluoro-phenyl)-amide] | < 0.1 | < 0.1 |  | 5 to 10 | > 10 | 5 to 10
CCCc1ccc(-c2cnc3[nH]cc(C(=O)c4c(F)ccc(NS(=O)(=O)CCC)c4F)c3c2)cn1 [P-2224, Propane-1-sulfonic acid {2,4-difluoro-3-[5-(6-propyl-pyridin-3-yl)-1H-pyrrolo[2,3-b]pyridine-3-carbonyl]-phenyl}-amide] | < 1 | < 1 |  | > 10 | > 10 | 5 to 10
CCCS(=O)(=O)Nc1ccc(F)c(C(=O)c2c[nH]c3ncc(-c4ccc(CCCOC)nc4)cc23)c1F [P-2226, Propane-1-sulfonic acid (2,4-difluoro-3-{5-[6-(3-methoxy-propyl)-pyridin-3-yl]-1H-pyrrolo[2,3-b]pyridine-3-carbonyl}-phenyl)-amide] | < 0.1 | < 0.1 |  | > 10 | > 10 | < 5
CCCS(=O)(=O)Nc1ccc(F)c(C(=O)c2c[nH]c3ncc(-c4ccc(N5CCCC5)nc4)cc23)c1F [P-2231, Propane-1-sulfonic acid {2,4-difluoro-3-[5-(6-pyrrolidin-1-yl-pyridin-3-yl)-1H-pyrrolo[2,3-b]pyridine-3-carbonyl]-phenyl}-amide] | < 0.1 | < 1 |  | > 10 | < 5 | 5 to 10
CCCS(=O)(=O)Nc1ccc(F)c(C(=O)c2c[nH]c3ncc(-c4ccc(OCCN5CCOCC5)nc4)cc23)c1F [P-2232, Propane-1-sulfonic acid (2,4-difluoro-3-{5-[6-(2-morpholin-4-yl-ethoxy)-pyridin-3-yl]-1H-pyrrolo[2,3-b]pyridine-3-carbonyl}-phenyl)-amide] | < 0.1 | < 0.1 |  | > 10 | > 10 | 5 to 10
CCCS(=O)(=O)Nc1ccc(F)c(C(=O)c2c[nH]c3ncc(-c4ccc(OCCN5CCCC5)nc4)cc23)c1F [P-2233, Propane-1-sulfonic acid (2,4-difluoro-3-{5-[6-(2-pyrrolidin-1-yl-ethoxy)-pyridin-3-yl]-1H-pyrrolo[2,3-b]pyridine-3-carbonyl}-phenyl)-amide] | < 0.1 | < 0.1 |  | > 10 | > 10 | > 10
CCCS(=O)(=O)Nc1ccc(F)c(C(=O)c2c[nH]c3ncc(-c4ccc(OCCCN5CCCC5)nc4)cc23)c1F [P-2235, Propane-1-sulfonic acid (2,4-difluoro-3-{5-[6-(3-pyrrolidin-1-yl-propoxy)-pyridin-3-yl]-1H-pyrrolo[2,3-b]pyridine-3-carbonyl}-phenyl)-amide] | < 0.1 | < 0.1 |  | > 10 | > 10 | > 10
CCCS(=O)(=O)Nc1ccc(F)c(C(=O)c2c[nH]c3ncc(-c4ccc(OCCCN5CCOCC5)nc4)cc23)c1F [P-2236, Propane-1-sulfonic acid (2,4-difluoro-3-{5-[6-(3-morpholin-4-yl-propoxy)-pyridin-3-yl]-1H-pyrrolo[2,3-b]pyridine-3-carbonyl}-phenyl)-amide] | < 0.1 | < 0.1 |  | > 10 | > 10 | < 5

Other lines, results leading:

IC50 [1] [µM] | IC50 [2] [µM] | IC50 [3] [µM] | IC50 [4] [µM] | IC50 [5] [µM] | IC50 [6] [µM] | SMILES
< 1 | < 1 | > 10 | > 10 | < 20 | 5 to 10 | O=C(c1c(F)ccc(NS(=O)(=O)c2cc(F)ccc2F)c1F)c1c[nH]c2ncc(Cl)cc12 [P-2002, N-[3-(5-Chloro-1H-pyrrolo[2,3-b]pyridine-3-carbonyl)-2,4-difluoro-phenyl]-2,5-difluoro-benzenesulfonamide]
< 1 | < 5 | > 10 | > 10 | > 10 | > 10 | COc1cnc2[nH]cc(C(=O)c3c(F)ccc(NS(=O)(=O)c4ccccc4F)c3F)c2c1 [P-2009, N-[2,4-Difluoro-3-(5-methoxy-1H-pyrrolo[2,3-b]pyridine-3-carbonyl)-phenyl]-2-fluoro-benzenesulfonamide]
< 5 |  | > 10 | > 10 | > 10 | > 10 | N#Cc1ccnc2[nH]cc(C(=O)c3c(F)ccc(NS(=O)(=O)c4ccccc4F)c3F)c12 [P-2020, N-[3-(4-Cyano-1H-pyrrolo[2,3-b]pyridine-3-carbonyl)-2,4-difluoro-phenyl]-2-fluoro-benzenesulfonamide]
< 1 |  | > 10 | > 10 | > 10 | 5 to 10 | N#Cc1cnc2[nH]cc(C(=O)c3cccc(NS(=O)(=O)c4ccccc4F)c3F)c2c1 [P-2051, N-[3-(5-Cyano-1H-pyrrolo[2,3-b]pyridine-3-carbonyl)-2-fluoro-phenyl]-2-fluoro-benzenesulfonamide]
< 5 | < 5 | > 10 | > 10 | < 5 |  | N#Cc1cnc2[nH]cc(C(=O)c3cccc(NS(=O)(=O)c4ccccc4)c3F)c2c1 [P-2056, N-[3-(5-Cyano-1H-pyrrolo[2,3-b]pyridine-3-carbonyl)-2-fluoro-phenyl]-benzenesulfonamide]
< 10 |  | > 10 | > 10 | > 10 | 5 to 10 | N#Cc1ccnc2[nH]cc(C(=O)c3c(F)ccc(NS(=O)(=O)c4cccnc4)c3F)c12 [P-2077, Pyridine-3-sulfonic acid [3-(4-cyano-1H-pyrrolo[2,3-b]pyridine-3-carbonyl)-2,4-difluoro-phenyl]-amide]
< 1 | < 1 |  | > 10 | < 10 | < 5 | CCCS(=O)(=O)Nc1ccc(F)c(C(=O)c2c[nH]c3ncc(-c4cnn(Cc5ccccc5)c4)cc23)c1F [P-2190, Propane-1-sulfonic acid {3-[5-(1-benzyl-1H-pyrazol-4-yl)-1H-pyrrolo[2,3-b]pyridine-3-carbonyl]-2,4-difluoro-phenyl}-amide]
< 1 | < 1 |  | > 10 | > 10 | 5 to 10 | C#Cc1cnc2[nH]cc(C(=O)c3c(F)ccc(NS(=O)(=O)CCC)c3F)c2c1 [P-2260, Propane-1-sulfonic acid [3-(5-ethynyl-1H-pyrrolo[2,3-b]pyridine-3-carbonyl)-2,4-difluoro-phenyl]-amide]
